We go through one molecule from patent publication US20080274208A1, “Water treatment containing DBNPA for use in sanitizing recreational water” (priority 2007, published 2008).

In assay [1] the test system is eight species of bacteria typically found in swimming pool water. Put plainly: Model swimming pool system: viable bacteria by agar plate counts (CLED agar). In kind it is cell-based, Alcaligenes, Chryseobacterium and Sphingomonas. As to conditions: Table 1; upon exceeding turbidity threshold (or at test end); DBNPA 2 ppm daily with/without oxidizer; PHMB 6 ppm. As to the method: (§1) The synthetic swimming pool water samples dosed with combinations of DBNPA, hydrogen peroxide, potassium monopersulfate and/or DDAC were compared to the performance of the commercially available Baquacil® swimming pool chemical treatment system (available commercially from Arch Chemicals, Inc., Norwalk, Conn.). […] PHMB), by addition of daily or weekly doses of the biocide. Hydrogen peroxide is added monthly at a concentration of 27.5 ppm. The samples were challenged on a daily basis with eight species of bacteria and four species of fungi typically found in swimming pool water. These microorganisms include species of the fungi Paecilomyces and Trichoderma, and species of the bacteria Alcaligenes, Chryseobacterium and Sphingomonas. Each inoculation represents a total addition of 0.8×10^6 microorganisms per model apparatus. In addition, 5 ml of synthetic bather load is added to the system on a daily basis, as a nutrient source for the microorganisms present in the system. The bather load consists of carbon, nitrogen and macro/micro nutrient sources such as urea, albumin, creatinine, lactic acid, uric acid, glucuronic acid, sodium chloride, sodium sulfate, ammonium chloride, sodium bicarbonate, potassium phosphate potassium sulfate. The total number of viable bacteria and fungi present in each sample was determined weekly by conducting agar plate counts. […]

The subject of assay [2] is four species of fungi typically found in swimming pool water. Description: Model swimming pool system: viable fungi by agar plate counts (Sabaroud-Dextrose agar). In kind it is cell-based, Paecilomyces and Trichoderma. As to conditions: Table 1; upon exceeding turbidity threshold (or at test end); DBNPA 2 ppm daily with/without oxidizer; PHMB 6 ppm. As to the method: as §1

The test system of assay [3] is eight species of bacteria and four species of fungi typically found in swimming pool water. Put plainly: Model swimming pool recirculating sand filter system: water clarity (turbidity) under daily microbial challenge. In kind it is cell-based. As to conditions: Table 1; synthetic pool water 80-90° F, daily inoculation and bather load; DBNPA 2 ppm daily; H2O2 27.5 ppm start, 7 ppm weekly; potassium monopersulfate 12 ppm initial and weekly; PHMB 6 ppm; 88 day test.
Method: The purpose of this experiment is to evaluate the robustness or the ability of single or combinations of biocides (plus additionally any other permutations of oxidizers and/or adjuvants) to prevent inoculated microorganisms from establishing colonies in the water and sand filter media, thus preventing bio-fouling of the system.
800 ml of synthetic swimming pool water (water containing calcium chloride dihydrate and sodium hydrogen carbonate solution at neutral pH) was pumped through a body of swimming pool filter sand by means of a peristaltic pump. The water temperature of each system was maintained in the range of 80-90° F. The biocide 2,2-dibromo-3-nitrilopropionamide (DBNPA) was added daily at a concentration of 2 ppm. When required, oxidizer hydrogen peroxide was added at a concentration of 27.5 ppm at the start of experiment, and 7 ppm weekly thereafter, and the loss of hydrogen peroxide in each system is monitored by calorimetric assay. […]
Model water turbidity was measured on a daily basis) using a Hach 2100P turbidimeter to measure water sample nephelometric turbidity units (NTUs). […]
The performance of the candidate treatment regimens was determined by the number of days the water clarity was maintained below 1.0 NTU (Nephelometric Turbidity Units). […]

With `N#CC(Br)(Br)C(N)=O` [DBNPA, 2,2-dibromo-3-nitrilopropionamide], the “Bacterial Counts at Clarity of 1.0 NTU or above” value in assay [1] was 1.39 × 10^5 CFU/ml. Also, the “Fungal Counts at Clarity of 1.0 NTU or above” value in assay [2] is on record as 5 × 10^0 CFU/ml. Moreover, the “Number of Days of Clarity below 1.0 NTU” value in assay [3] is listed as 59 days.
